{"source": "patent US20230149418A1", "about": "“METHODS AND SYNERGIC COMPOSITIONS FOR TREATING VIRAL INFECTIONS” (HADASIT MEDICAL RESEARCH SERVICES AND DEVELOPMENT LTD., priority 2018, published 2023)", "system": "HCMV TB40/E strain", "test": "Plaque reduction assay, HCMV TB40/E strain in human foreskin fibroblasts, single drugs and 2-drug combinations (Chou-Talalay)", "assay_type": "cell-based, human cytomegalovirus", "settings": "for Dose of drug alone at Fa 0.75: Fa 0.75, drug alone; for Dose of drug alone at Fa 0.9: Fa 0.9, drug alone; for Dose of drug alone at Fa 0.95: Fa 0.95, drug alone; for Dose of drug alone at Fa 0.97: Fa 0.97, drug alone; for Dose of drug alone at Fa 0.05: Fa (fraction of virus affected) 0.05, drug alone", "protocol": "The CMV strain used was TB40/E. The CMV strain was propagated and tittered in human foreskin fibroblasts (HFF) cells. Cell-free virus stocks and cell-associated clinical isolates were maintained at -70° C. Viral stocks were tittered by serial 10-fold dilution in 24-well tissue culture plates containing HFF monolayers overlaid with agarose-medium. After incubation for 7 to 14 days, plaques were enumerated, and virus titer was determined as plaque forming units (PFU) per milliliter (ml). Stocks of artemisone (10 mM), ganciclovir (10 mM), BDCRB (120 mM), brincidofovir (1 mM), maribavir (10 mM) and letermovir (10 mM) were prepared in DMSO or H2O.\nCell monolayers were inoculated in 24-well culture plates with 0.2 ml of virus suspension containing 60 to 100 PFU per well. After adsorption for 60 -120 min at 37° C., the inoculum was removed, and culture medium was replaced with agarose-medium overlay containing serial concentrations of the tested drug(s). Plates were incubated for 7-14 days at 37° C. in a 5% CO2 incubator. Plaques were then counted microscopically.\nThe effect of a combination of artemisone with each one of ganciclovir (HCMV DNA polymerase), BDCRB (HCMV terminase inhibitor), brincidofovir (HCMV DNA polymerase inhibitor), maribavir (HCMV UL97 kinase inhibitor) and letermovir (HCMV terminase inhibitor) was evaluated by the classical plaque reduction assay. The in vitro activity of each of the above mentioned antiviral compounds alone or in combination with artemisone was evaluated by the classical plaque reduction assay, using HCMV TB40/E strain in human foreskin fibroblasts cells. The concentration of each antiviral compound that reduced the plaque formation by 50% (EC50) was determined as previously described in Wolf DG et al., J Clin Invest. 1995;95:257-63. The individual EC50 values in human foreskin fibroblasts were as follows: artemisone EC50 - 1 µM; ganciclovir EC50 - 1 µM; maribavir EC50 - 1 µM; BDCRB EC50 - 0.5 µM; letermovir EC50 - 5 nM; brincidofovir EC50 -1 nM.\nFor the 2-drug combination studies, the EC50 value of each drug was used to determine an equipotent ratio between the two compounds (EC50 of drug 1 / EC50 of drug 2). Serial 2-fold dilutions of a mixture comprising artemisone and another antiviral compound at initial concentrations equivalent to 4-fold the equipotent ratio were added to duplicate wells of cells infected with HCMV. Overall, 5 different concentrations of the drug combinations were used: 4xEC50, 2xEC50, 1xEC50,0.5xEC50,0.25xEC50. The cell monolayers were inoculated in 24-well culture plates with 0.2 ml of virus suspension containing 60 to 100 plaque-forming unit (PFU) per well; the Multiplicity of infection (MOI) was 0.001-0.002 PFU/cell).\nD1 and D2 are the doses of the two drugs, and Dx is a dose causing to x% effect (LD0.5 is EC50). Briefly, the software extrapolated a combination index (CI) representing the interaction between the two drugs at specified levels of virus inhibition (that is 50%, 75%, 90%, 95%) versus the percentages of the inhibition induced by each drug alone and in combination (equation 16 in Chou).\nA weighted average CI (CIwt) was then calculated for each combination as (CI50+ 2×CI75+3×CI90+4×CI95)/10, to access the drug combinatory effects.\nThe dose reduction index (DRI) was then calculated as described in Chou. In general, the DRI measures the fold of dose reduction of each drug in the combination at a given effect level compared with the doses of each drug alone. For each one of the below tables: Fa - fraction of virus affected; doses are provided in µm.", "note": "Where two headings read alike, the source gives them in different places."}
{"molecule": "OC[C@H]1O[C@@H](n2c(Br)nc3cc(Cl)c(Cl)cc32)[C@H](O)[C@@H]1O", "note": "[BDCRB, 2-bromo-5,6-dichloro-1-beta-D-ribofuranosyl benzimidazole]", "values": [{"measurement": "EC50", "setting": "Human betaherpesvirus 5, Fibroblast, drug alone, human foreskin fibroblasts, read-out: EC50 (concentration that reduced the plaque formation by 50%)", "result": 0.5, "unit": "µM"}]}
{"molecule": "brincidofovir", "values": [{"measurement": "EC50", "setting": "Fa 0.5, drug alone, read-out: Dose of drug alone at Fa 0.5", "result": 0.000649, "unit": "µM"}, {"measurement": "Dose of drug alone at Fa 0.75", "result": 0.001, "unit": "µm"}, {"measurement": "Dose of drug alone at Fa 0.9", "result": 0.002, "unit": "µm"}, {"measurement": "Dose of drug alone at Fa 0.95", "result": 0.002, "unit": "µm"}, {"measurement": "Dose of drug alone at Fa 0.97", "result": 0.003, "unit": "µm"}, {"measurement": "Dose of drug alone at Fa 0.05", "result": "1.87E-4", "unit": "µm"}, {"measurement": "DRI (dose reduction index)", "setting": "combination artemisone + brincidofovir, Fa 0.05", "result": 1.43}, {"measurement": "DRI (dose reduction index)", "setting": "combination artemisone + brincidofovir, Fa 0.5", "result": 1.48}, {"measurement": "DRI (dose reduction index)", "setting": "combination artemisone + brincidofovir, Fa 0.75", "result": 1.5}, {"measurement": "DRI (dose reduction index)", "setting": "combination artemisone + brincidofovir, Fa 0.9", "result": "up to 1.5"}, {"measurement": "DRI (dose reduction index)", "setting": "combination artemisone + brincidofovir, Fa 0.9, listed as BCV", "result": 1.52}, {"measurement": "DRI (dose reduction index)", "setting": "combination artemisone + brincidofovir, Fa 0.95", "result": 1.53}, {"measurement": "DRI (dose reduction index)", "setting": "combination artemisone + brincidofovir, Fa 0.97", "result": 1.54}, {"measurement": "EC50", "setting": "drug alone, human foreskin fibroblasts, read-out: EC50 (concentration that reduced the plaque formation by 50%)", "result": 0.001, "unit": "µM"}]}
{"molecule": "Nc1ccn(C[C@@H](CO)OCP(=O)(O)O)c(=O)n1", "note": "[cidofovir]", "values": [{"measurement": "Dose of drug alone at Fa 0.75", "result": 0.646, "unit": "µm"}, {"measurement": "Dose of drug alone at Fa 0.9", "result": 1.148, "unit": "µm"}, {"measurement": "Dose of drug alone at Fa 0.95", "result": 1.698, "unit": "µm"}, {"measurement": "Dose of drug alone at Fa 0.97", "result": 2.242, "unit": "µm"}, {"measurement": "Dose of drug alone at Fa 0.05", "result": 0.07783, "unit": "µm"}, {"measurement": "EC50", "setting": "Human betaherpesvirus 5, Fibroblast, Fa 0.5, drug alone, read-out: Dose of drug alone at Fa 0.5", "result": 0.363, "unit": "µM"}, {"measurement": "DRI (dose reduction index)", "setting": "combination artemisone + cidofovir, Fa 0.05", "result": 1.038}, {"measurement": "DRI (dose reduction index)", "setting": "combination artemisone + cidofovir, Fa 0.5", "result": 1.757}, {"measurement": "DRI (dose reduction index)", "setting": "combination artemisone + cidofovir, Fa 0.75", "result": 2.139}, {"measurement": "DRI (dose reduction index)", "setting": "combination artemisone + cidofovir, Fa 0.9", "result": 2.6}, {"measurement": "DRI (dose reduction index)", "setting": "combination artemisone + cidofovir, Fa 0.9, listed as CDV", "result": 2.603}, {"measurement": "DRI (dose reduction index)", "setting": "combination artemisone + cidofovir, Fa 0.95", "result": 2.975}, {"measurement": "DRI (dose reduction index)", "setting": "combination artemisone + cidofovir, Fa 0.97", "result": "up to 3.27"}, {"measurement": "DRI (dose reduction index)", "setting": "combination artemisone + cidofovir, Fa 0.97, listed as CDV", "result": 3.271}]}
